Assay results as given in PubChem BioAssay (NCI).
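Grown in 96-well plates, cells were treated for 48 hours with each compound at five concentrations. Insufficient inhibition: endpoint recorded as highest concentration tested. TGI is the concentration that stops growth completely.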

Assays:
Assay in all cases: DTP human tumour cell line panel, 48 h
786-0 renal = system: 786-0 renal
A498 renal = system: A498 renal
A549 NSCLC = system: A549 NSCLC
ACHN renal = system: ACHN renal
BT-549 breast = system: BT-549 breast
CAKI-1 renal = system: CAKI-1 renal
CCRF-CEM leukemia = system: CCRF-CEM leukemia
COLO 205 colon = system: COLO 205 colon
DU-145 prostate = system: DU-145 prostate
EKVX NSCLC = system: EKVX NSCLC
HCC-2998 colon = system: HCC-2998 colon
HCT-116 colon = system: HCT-116 colon
HCT-15 colon = system: HCT-15 colon
HL-60(TB) leukemia = system: HL-60(TB) leukemia
HOP-62 NSCLC = system: HOP-62 NSCLC
HOP-92 NSCLC = system: HOP-92 NSCLC
HS 578T breast = system: HS 578T breast
HT29 colon = system: HT29 colon
IGROV1 ovarian = system: IGROV1 ovarian
K-562 leukemia = system: K-562 leukemia
KM12 colon = system: KM12 colon
LOX IMVI melanoma = system: LOX IMVI melanoma
M14 melanoma = system: M14 melanoma
MALME-3M melanoma = system: MALME-3M melanoma
MCF7 breast = system: MCF7 breast
MDA-MB-231 breast = system: MDA-MB-231 breast
MDA-MB-435 = system: MDA-MB-435
MDA-N = system: MDA-N
MOLT-4 leukemia = system: MOLT-4 leukemia
NCI-H226 lung = system: NCI-H226 lung
NCI-H23 lung = system: NCI-H23 lung
NCI-H460 lung = system: NCI-H460 lung
NCI-H522 lung = system: NCI-H522 lung
NCI/ADR-RES ovarian = system: NCI/ADR-RES ovarian
OVCAR-3 ovarian = system: OVCAR-3 ovarian
OVCAR-4 ovarian = system: OVCAR-4 ovarian
OVCAR-5 ovarian = system: OVCAR-5 ovarian
OVCAR-8 ovarian = system: OVCAR-8 ovarian
PC-3 prostate = system: PC-3 prostate
RPMI-8226 leukemia = system: RPMI-8226 leukemia
RXF 393 renal = system: RXF 393 renal
SF-268 CNS = system: SF-268 CNS
SF-295 CNS = system: SF-295 CNS
SF-539 CNS = system: SF-539 CNS
SK-MEL-2 melanoma = system: SK-MEL-2 melanoma
SK-MEL-28 melanoma = system: SK-MEL-28 melanoma
SK-MEL-5 melanoma = system: SK-MEL-5 melanoma
SK-OV-3 ovarian = system: SK-OV-3 ovarian
SN12C renal = system: SN12C renal
SNB-19 CNS = system: SNB-19 CNS
SNB-75 CNS = system: SNB-75 CNS
SR leukemia = system: SR leukemia
SW-620 colon = system: SW-620 colon
T-47D breast = system: T-47D breast
TK-10 renal = system: TK-10 renal
U251 CNS = system: U251 CNS
UACC-257 melanoma = system: UACC-257 melanoma
UACC-62 melanoma = system: UACC-62 melanoma
UO-31 renal = system: UO-31 renal

For `CCC(=O)/C=C/c1ccccc1`, the TGI (786-0 renal) was > 100 µM, the TGI (A498 renal) was > 100 µM and the TGI (A549 NSCLC) was > 100 µM. For the same compound, the TGI (ACHN renal) was > 100 µM, the TGI (BT-549 breast) was > 100 µM and the TGI (CAKI-1 renal) was > 100 µM. The TGI (CCRF-CEM leukemia) was > 100 µM, the TGI (COLO 205 colon) was > 100 µM and the TGI (DU-145 prostate) was > 100 µM. The TGI (EKVX NSCLC) was > 100 µM, the TGI (HCC-2998 colon) was > 100 µM and the TGI (HCT-116 colon) was > 100 µM. For the same compound, the TGI (HCT-15 colon) was > 100 µM, the TGI (HL-60(TB) leukemia) was > 100 µM and the TGI (HOP-62 NSCLC) was > 100 µM. The TGI (HOP-92 NSCLC) was > 100 µM, the TGI (HS 578T breast) was > 100 µM and the TGI (HT29 colon) was > 100 µM. For the same compound, the TGI (IGROV1 ovarian) was > 100 µM, the TGI (K-562 leukemia) was > 100 µM and the TGI (KM12 colon) was 42.9 µM. The TGI (LOX IMVI melanoma) was > 100 µM, the TGI (M14 melanoma) was > 100 µM and the TGI (MALME-3M melanoma) was > 100 µM. The TGI (MCF7 breast) was > 100 µM, the TGI (MDA-MB-231 breast) was > 100 µM and the TGI (MDA-MB-435) was > 100 µM. The TGI (MDA-N) was > 100 µM, the TGI (MOLT-4 leukemia) was 89.2 µM and the TGI (NCI-H226 lung) was > 100 µM. The TGI (NCI-H23 lung) was > 100 µM, the TGI (NCI-H460 lung) was > 100 µM and the TGI (NCI-H522 lung) was > 100 µM. The TGI (NCI/ADR-RES ovarian) was > 100 µM, the TGI (OVCAR-3 ovarian) was > 100 µM and the TGI (OVCAR-4 ovarian) was > 100 µM. The TGI (OVCAR-5 ovarian) was > 100 µM, the TGI (OVCAR-8 ovarian) was > 100 µM and the TGI (PC-3 prostate) was > 100 µM. For the same compound, the TGI (RPMI-8226 leukemia) was > 100 µM, the TGI (RXF 393 renal) was > 100 µM and the TGI (SF-268 CNS) was > 100 µM. For the same compound, the TGI (SF-295 CNS) was > 100 µM, the TGI (SF-539 CNS) was > 100 µM and the TGI (SK-MEL-2 melanoma) was > 100 µM. The TGI (SK-MEL-28 melanoma) was > 100 µM, the TGI (SK-MEL-5 melanoma) was > 100 µM and the TGI (SK-OV-3 ovarian) was > 100 µM. For the same compound, the TGI (SN12C renal) was > 100 µM, the TGI (SNB-19 CNS) was > 100 µM and the TGI (SNB-75 CNS) was > 100 µM. For the same compound, the TGI (SR leukemia) was > 100 µM, the TGI (SW-620 colon) was > 100 µM and the TGI (T-47D breast) was > 100 µM. For the same compound, the TGI (TK-10 renal) was > 100 µM, the TGI (U251 CNS) was > 100 µM and the TGI (UACC-257 melanoma) was > 100 µM. For the same compound, the TGI (UACC-62 melanoma) was > 100 µM and the TGI (UO-31 renal) was > 100 µM.

In the case of `CCn1cc(C(=O)O)c(=O)c2cc(F)c(N3CCN(CN4C(=O)/C(=N\c5ncc(Cc6cc(OC)c(OC)c(OC)c6)c(N)n5)c5cc(Cl)ccc54)CC3)cc21`, the TGI (786-0 renal) is reported as > 100 µM, the TGI (A498 renal) is reported as > 100 µM and the TGI (A549 NSCLC) is reported as > 100 µM. The TGI (ACHN renal) was > 100 µM, the TGI (BT-549 breast) was > 100 µM and the TGI (CAKI-1 renal) was > 100 µM. The TGI (CCRF-CEM leukemia) was > 100 µM, the TGI (COLO 205 colon) was > 100 µM and the TGI (DU-145 prostate) was > 100 µM. For the same compound, the TGI (EKVX NSCLC) was > 100 µM, the TGI (HCC-2998 colon) was > 100 µM and the TGI (HCT-116 colon) was > 100 µM. The TGI (HCT-15 colon) was > 100 µM, the TGI (HL-60(TB) leukemia) was > 100 µM and the TGI (HOP-62 NSCLC) was > 100 µM. The TGI (HOP-92 NSCLC) was > 100 µM, the TGI (HS 578T breast) was > 100 µM and the TGI (HT29 colon) was > 100 µM. The TGI (IGROV1 ovarian) was > 100 µM, the TGI (K-562 leukemia) was > 100 µM and the TGI (KM12 colon) was > 100 µM. The TGI (LOX IMVI melanoma) was > 100 µM, the TGI (M14 melanoma) was > 100 µM and the TGI (MALME-3M melanoma) was > 100 µM. For the same compound, the TGI (MCF7 breast) was > 100 µM, the TGI (MDA-MB-231 breast) was > 100 µM and the TGI (MDA-MB-435) was > 100 µM. The TGI (MDA-N) was > 100 µM, the TGI (MOLT-4 leukemia) was > 100 µM and the TGI (NCI-H226 lung) was > 100 µM. For the same compound, the TGI (NCI-H23 lung) was > 100 µM, the TGI (NCI-H460 lung) was > 100 µM and the TGI (NCI-H522 lung) was > 100 µM. For the same compound, the TGI (NCI/ADR-RES ovarian) was > 100 µM, the TGI (OVCAR-3 ovarian) was > 100 µM and the TGI (OVCAR-4 ovarian) was > 100 µM. For the same compound, the TGI (OVCAR-5 ovarian) was > 100 µM, the TGI (OVCAR-8 ovarian) was > 100 µM and the TGI (PC-3 prostate) was > 100 µM. For the same compound, the TGI (RPMI-8226 leukemia) was > 100 µM, the TGI (RXF 393 renal) was > 100 µM and the TGI (SF-268 CNS) was > 100 µM. For the same compound, the TGI (SF-295 CNS) was > 100 µM, the TGI (SF-539 CNS) was > 100 µM and the TGI (SK-MEL-2 melanoma) was > 100 µM. For the same compound, the TGI (SK-MEL-28 melanoma) was > 100 µM, the TGI (SK-MEL-5 melanoma) was > 100 µM and the TGI (SK-OV-3 ovarian) was > 100 µM. The TGI (SN12C renal) was > 100 µM, the TGI (SNB-19 CNS) was > 100 µM and the TGI (SNB-75 CNS) was > 100 µM. For the same compound, the TGI (SR leukemia) was > 100 µM, the TGI (SW-620 colon) was > 100 µM and the TGI (T-47D breast) was > 100 µM. For the same compound, the TGI (TK-10 renal) was > 100 µM, the TGI (U251 CNS) was > 100 µM and the TGI (UACC-257 melanoma) was > 100 µM. The TGI (UACC-62 melanoma) was > 100 µM and the TGI (UO-31 renal) was > 100 µM.
